Literature values as cited in US6774247B2, “Aqueous solution of ascorbic acid and method for producing same” (AquaNova German Solubilisate Technology (AGT) GmbH, priority 2001, dated 2004).

Conditions: aqueous ascorbic acid solution, after 30 days

added ascorbic acid still present: about 70%
SMILES: O=C1O[C@H]([C@@H](O)CO)C(O)=C1O [ascorbic acid]
